Experimental data from patent US8030498B2, “Benzoylpyrazole compounds and herbicides containing them” (Ishihara Sangyo Kaisha, Ltd., priority 2005, dated 2011).

Key:
[1] = system: crabgrass (Digitaria sanguinalis L.); test: Test Example 1: foliar treatment, growth inhibition rate, crabgrass; format: in vivo; settings: 31 g/ha active ingredient, visually observed 17th to 23rd day after application
Description: (§1) Upland field soil was put into a 1/170,000 hectare pot, and seeds of various plants were sown. When the respective plants reached predetermined leaf stage ((1) barnyardgrass (Echinochloa crus-galli L.); 0.8 to 2.5 leaf stage, (2) crabgrass (Digitaria sanguinalis L.): 0.5 to 3.0 leaf stage, (3) greenfoxtail (Setaria viridis L.): 1.0 to 3.0 leaf stage, (4) redroot pigweed (Amaranthus retroflexus L.): cotyledon stage to 2.0 leaf stage, (5) prickly sida (Sida spinosa L.): cotyledon stage to 1.1 leaf stage, (6) velvetleaf (Abutilon theophrasti MEDIC.): cotyledon stage to 1.5 leaf stage, (7) rice (Oryza sativa L.): 1.0 to 2.5 leaf stage, (8) wheat (Triticum spp.): 1.7 to 3.4 leaf stage, (9) corn (Zea mays L.): 2.0 to 3.5 leaf stage, and (10) soybean (Glycine max Merr.): primary leaf stage to 0.3 leaf stage), wettable powders or emulsifiable concentrates of the compounds of the present invention prepared in accordance with a conventional preparation method, were weighed so that the active ingredients became the prescribed amounts, and diluted with water in an amount corresponding to 500 liter per 1 hectare. 0.1 vol % of an agricultural spreader was further added to the respective diluted liquids, followed by foliar treatment with a small sprayer.
(§2) On the 17th to 23rd day after application, the state of growth of the respective plants was visually observed, and the herbicidal effect was evaluated in accordance with a growth inhibition rate (%) of 0 (equivalent to the non-treated area) to 100% (complete kill).

corn (Zea mays L.) = test: Test Example 1: foliar treatment, growth inhibition rate, corn; format: in vivo; settings: 31 g/ha active ingredient, visually observed 17th to 23rd day after application
Description: as §1, §2

crabgrass = test: Test Example 2: soil application on the day after sowing, growth inhibition rate, crabgrass; format: in vivo, Digitaria sanguinalis L.; settings: 250 g/ha active ingredient, observed on 19th to 24th day
Description: (§3) Upland field soil was put into a 1/170,000 hectare pot, and seeds of various plants (barnyardgrass, crabgrass, greenfoxtail, redroot pigweed, prickly sida, velvetleaf, rice, wheat, corn and soybean) were sown. On the day after sowing, wettable powders or emulsifiable concentrates of the compounds of the present invention prepared in accordance with a conventional preparation method, were weighed so that the active ingredients became the prescribed amounts, and diluted with water in an amount corresponding to 500 liter per 1 hectare, followed by soil application with a small sprayer. On the 19th to 24th day after the application, the state of growth of the respective plants was visually observed, and the herbicidal effect was evaluated in accordance with a growth inhibition rate (%) of from 0 (equivalent to the non-treated area) to 100% (complete kill).

[2] = system: soybean (Glycine max Merr.); test: Test Example 1: foliar treatment, growth inhibition rate, soybean; format: in vivo; settings: 31 g/ha active ingredient, visually observed 17th to 23rd day after application
Description: as §1, §2

[3] = system: redroot pigweed (Amaranthus retroflexus L.); test: Test Example 1: foliar treatment, growth inhibition rate, redroot pigweed; format: in vivo; settings: 31 g/ha active ingredient, visually observed 17th to 23rd day after application
Description: as §1, §2

redroot pigweed = test: Test Example 2: soil application on the day after sowing, growth inhibition rate, redroot pigweed; format: in vivo, Amaranthus retroflexus L.; settings: 250 g/ha active ingredient, observed on 19th to 24th day
Description: as §3

[4] = system: velvetleaf (Abutilon theophrasti MEDIC.); test: Test Example 1: foliar treatment, growth inhibition rate, velvetleaf; format: in vivo; settings: 31 g/ha active ingredient, visually observed 17th to 23rd day after application
Description: as §1, §2

[5] = system: barnyardgrass (Echinochloa crus-galli L.); test: Test Example 1: foliar treatment, growth inhibition rate, barnyardgrass; format: in vivo; settings: 31 g/ha active ingredient, visually observed 17th to 23rd day after application
Description: as §1, §2

rice = test: Test Example 2: soil application on the day after sowing, growth inhibition rate, rice; format: in vivo, Oryza sativa L.; settings: 250 g/ha active ingredient, observed on 19th to 24th day
Description: as §3

velvetleaf = test: Test Example 2: soil application on the day after sowing, growth inhibition rate, velvetleaf; format: in vivo, Abutilon theophrasti MEDIC.; settings: 250 g/ha active ingredient, observed on 19th to 24th day
Description: as §3

rice (Oryza sativa L.) = test: Test Example 1: foliar treatment, growth inhibition rate, rice; format: in vivo; settings: 31 g/ha active ingredient, visually observed 17th to 23rd day after application
Description: as §1, §2

[6] = system: prickly sida (Sida spinosa L.); test: Test Example 1: foliar treatment, growth inhibition rate, prickly sida; format: in vivo; settings: 31 g/ha active ingredient, visually observed 17th to 23rd day after application
Description: as §1, §2

barnyardgrass = test: Test Example 2: soil application on the day after sowing, growth inhibition rate, barnyardgrass; format: in vivo, Echinochloa crus-galli L.; settings: 250 g/ha active ingredient, observed on 19th to 24th day
Description: as §3

corn = test: Test Example 2: soil application on the day after sowing, growth inhibition rate, corn; format: in vivo, Zea mays L.; settings: 250 g/ha active ingredient, observed on 19th to 24th day
Description: as §3

wheat = test: Test Example 2: soil application on the day after sowing, growth inhibition rate, wheat; format: in vivo, Triticum spp.; settings: 250 g/ha active ingredient, observed on 19th to 24th day
Description: as §3

prickly sida = test: Test Example 2: soil application on the day after sowing, growth inhibition rate, prickly sida; format: in vivo, Sida spinosa L.; settings: 250 g/ha active ingredient, observed on 19th to 24th day
Description: as §3

greenfoxtail = test: Test Example 2: soil application on the day after sowing, growth inhibition rate, greenfoxtail; format: in vivo, Setaria viridis L.; settings: 250 g/ha active ingredient, observed on 19th to 24th day
Description: as §3

[7] = system: greenfoxtail (Setaria viridis L.); test: Test Example 1: foliar treatment, growth inhibition rate, greenfoxtail; format: in vivo; settings: 31 g/ha active ingredient, visually observed 17th to 23rd day after application
Description: as §1, §2

wheat (Triticum spp.) = test: Test Example 1: foliar treatment, growth inhibition rate, wheat; format: in vivo; settings: 31 g/ha active ingredient, visually observed 17th to 23rd day after application
Description: as §1, §2

soybean = test: Test Example 2: soil application on the day after sowing, growth inhibition rate, soybean; format: in vivo, Glycine max Merr.; settings: 250 g/ha active ingredient, observed on 19th to 24th day
Description: as §3

## CCSC(=O)Oc1c(C(=O)c2ccc(S(C)(=O)=O)c(C(=O)SC)c2Cl)cnn1C [compound 31]
[1]
  Growth inhibition rate (%) Crabgrass: 30%
Corn (Zea mays L.)
  Growth inhibition rate (%) Corn: 60%
crabgrass
  Growth inhibition rate (%) Crabgrass: 65%
[2]
  Growth inhibition rate (%) Soybean: 50%
[3]
  Growth inhibition rate (%) redroot pigweed: 70%
Redroot pigweed
  Growth inhibition rate (%) redroot pigweed: 60%
[4]
  Growth inhibition rate (%) Velvetleaf: 60%
[5]
  Growth inhibition rate (%) Barnyardgrass: 100%
rice
  Growth inhibition rate (%) Rice: 60%
velvetleaf
  Growth inhibition rate (%) Velvetleaf: 60%
Rice (Oryza sativa L.)
  Growth inhibition rate (%) Rice: 60%
[6]
  Growth inhibition rate (%) Prickly sida: 70%
barnyardgrass
  Growth inhibition rate (%) Barnyardgrass: 60%
corn
  Growth inhibition rate (%) Corn: 0%
wheat
  Growth inhibition rate (%) Wheat: 0%
Prickly sida
  Growth inhibition rate (%) Prickly sida: 70%
greenfoxtail
  Growth inhibition rate (%) Greenfoxtail: 70%
[7]
  Growth inhibition rate (%) Greenfoxtail: 80%
Wheat (Triticum spp.)
  Growth inhibition rate (%) Wheat: 0%

## CCn1ncc(C(=O)c2ccc(S(C)(=O)=O)c(OCCOC)c2C)c1OC(=O)SC [compound 234]
[1]
  Growth inhibition rate (%) Crabgrass: 100%
Corn (Zea mays L.)
  Growth inhibition rate (%) Corn: 0%
crabgrass
  Growth inhibition rate (%) Crabgrass: 100%
[2]
  Growth inhibition rate (%) Soybean: 100%
[3]
  Growth inhibition rate (%) redroot pigweed: 100%
Redroot pigweed
  Growth inhibition rate (%) redroot pigweed: 100%
[4]
  Growth inhibition rate (%) Velvetleaf: 100%
[5]
  Growth inhibition rate (%) Barnyardgrass: 100%
rice
  Growth inhibition rate (%) Rice: 100%
velvetleaf
  Growth inhibition rate (%) Velvetleaf: 70%
Rice (Oryza sativa L.)
  Growth inhibition rate (%) Rice: 90%
[6]
  Growth inhibition rate (%) Prickly sida: 50%
barnyardgrass
  Growth inhibition rate (%) Barnyardgrass: 100%
corn
  Growth inhibition rate (%) Corn: 0%
Prickly sida
  Growth inhibition rate (%) Prickly sida: 20%
soybean
  Growth inhibition rate (%) Soybean: 0%
greenfoxtail
  Growth inhibition rate (%) Greenfoxtail: 100%
[7]
  Growth inhibition rate (%) Greenfoxtail: 100%
Wheat (Triticum spp.)
  Growth inhibition rate (%) Wheat: 0%

## CCCSC(=O)Oc1c(C(=O)c2ccc(S(C)(=O)=O)c(OCCOC)c2C)cnn1CC [compound 235]
[1]
  Growth inhibition rate (%) Crabgrass: 100%
Corn (Zea mays L.)
  Growth inhibition rate (%) Corn: 30%
crabgrass
  Growth inhibition rate (%) Crabgrass: 100%
[2]
  Growth inhibition rate (%) Soybean: 100%
[3]
  Growth inhibition rate (%) redroot pigweed: 100%
Redroot pigweed
  Growth inhibition rate (%) redroot pigweed: 100%
[4]
  Growth inhibition rate (%) Velvetleaf: 100%
[5]
  Growth inhibition rate (%) Barnyardgrass: 100%
rice
  Growth inhibition rate (%) Rice: 100%
velvetleaf
  Growth inhibition rate (%) Velvetleaf: 20%
Rice (Oryza sativa L.)
  Growth inhibition rate (%) Rice: 90%
[6]
  Growth inhibition rate (%) Prickly sida: 50%
barnyardgrass
  Growth inhibition rate (%) Barnyardgrass: 100%
corn
  Growth inhibition rate (%) Corn: 0%
Prickly sida
  Growth inhibition rate (%) Prickly sida: 98%
soybean
  Growth inhibition rate (%) Soybean: 0%
greenfoxtail
  Growth inhibition rate (%) Greenfoxtail: 100%
[7]
  Growth inhibition rate (%) Greenfoxtail: 100%
Wheat (Triticum spp.)
  Growth inhibition rate (%) Wheat: 40%

## CCSC(=O)Oc1c(C(=O)c2ccc(S(C)(=O)=O)c(OC(C)COC)c2C)cnn1C (stereo not shown) [compound 236]
[1]
  Growth inhibition rate (%) Crabgrass: 50%
Corn (Zea mays L.)
  Growth inhibition rate (%) Corn: 0%
crabgrass
  Growth inhibition rate (%) Crabgrass: 95%
[2]
  Growth inhibition rate (%) Soybean: 95%
[3]
  Growth inhibition rate (%) redroot pigweed: 90%
Redroot pigweed
  Growth inhibition rate (%) redroot pigweed: 100%
[4]
  Growth inhibition rate (%) Velvetleaf: 70%
[5]
  Growth inhibition rate (%) Barnyardgrass: 60%
rice
  Growth inhibition rate (%) Rice: 70%
velvetleaf
  Growth inhibition rate (%) Velvetleaf: 0%
Rice (Oryza sativa L.)
  Growth inhibition rate (%) Rice: 80%
[6]
  Growth inhibition rate (%) Prickly sida: 40%
barnyardgrass
  Growth inhibition rate (%) Barnyardgrass: 98%
corn
  Growth inhibition rate (%) Corn: 0%
Prickly sida
  Growth inhibition rate (%) Prickly sida: 30%
soybean
  Growth inhibition rate (%) Soybean: 0%
greenfoxtail
  Growth inhibition rate (%) Greenfoxtail: 10%
[7]
  Growth inhibition rate (%) Greenfoxtail: 40%
Wheat (Triticum spp.)
  Growth inhibition rate (%) Wheat: 0%
